Experimental data taken from US20120172375A1, “COMPOUNDS AND METHODS OF PROMOTING OLIGODENDROCYTE PRECURSOR DIFFERENTIATION” (priority 2008, published 2012).
Entries after “also recorded” stand apart in the source; their conditions may differ.

Assays:
Akt = Akt activity in cell extracts of oligodendrocyte precursors (phosphorylation of Akt substrate GSKα/β); type: cell-based; conditions: 10 μM, 48 h
Excerpt: Oligodendrocyte precursor differentiation requires the activation of a complex, highly controlled machinery that signals cells to stop migrating/proliferating and start extending processes and producing myelin components. A number of inducers and intracellular mediators of this process have been identified in vitro and in viva. […] Therefore, we studied whether our selected small molecules induced Akt signaling in oligodendrocyte precursors. We analyzed Akt activity in cell extracts of oligodendrocyte precursors treated with selected compounds (10 μM, 48 h), as determined by phosphorylation of Akt substrate GSKα/β.

[1] = system: tg[Plp:EGFP] zebrafish embryos; assay: Oligodendrocyte development in tg[Plp:EGFP] zebrafish embryos; type: in vivo; conditions: 1, 10 and 100 nM from 24 hpf, analysed at 72 hpf
Procedure: Transgenic-Proteolipid protein-enhanced green fluorescence protein (tg[plp:EGFP]) zebrafish was raised and maintained (Yoshida and Macklin, J. Neurosci Res, 81:1, 2005). Embryos were collected and staged by hour post fertilization (hpf). Compounds were added at 24 hpf stage at a concentration of 10 nM, 100 nM and 1 μM. After 48 hrs (72 hpf stage), zebrafish embryos were anesthetized in 0.02% tricaine, fixed in 4% paraformaldehyde, and washed in phosphate buffered saline (PBS). After treating with 10% Triton X-100 for 30 minutes, embryos were washed in PBS and blocked with 3% goat serum. Embryos were then incubated at 4° C. overnight with FITC-conjugated goat anti-GFP antibody (Abcam, Cambridge, Mass.) at a concentration of 1:1000. After several washes with PBS, the embryos were embedded in 100% glycerol and visualized on a Leica SP5 confocal microscope.
Embryos from transgenic-Plp-EGFP (tg[Plp:EGFP]) zebrafish were treated starting at 24 hours post fertilization (hpf) with compounds A, A-7 or B (1, 10 and 100 nM) or vehicle (DMSO). At 72 hpf effective treatments were analyzed by confocal microscopy after fixation and EGFP immunostaining of selected positive compounds.

[2] = Detection of small molecules in blood plasma and brain tissue by mass spectrometry; conditions: for blood plasma level, average / brain level, average: 4 mice; for blood plasma level, average / brain level, average / Biological sample concentration (nM), Brain / Biological sample concentration (nM), Plasma: 100 mg/kg i.p., two doses in 5 days; for crossing of the blood brain barrier: two I.P. doses in a five day-term
Procedure: The signal was optimized for each compound for positive or negative ionization by ESI (Electrospray ionization). A standard curve what made with pure compound solutions in DMSO up to 10 ng/ml. A MS2 scan was used to identify the progenitor ion and a product ion analysis was used to identify the best fragment for analysis and to optimize the collision energy. […] Samples were precipitated in 3 volumes of methanol with internal standard, centrifuged, and filtered. Filtered samples were analyzed by LC/MS/MS using either an Agilent 6410 mass spectrometer coupled with an Agilent 1200 HPLC and a CTC PAL chilled autosampler, all controlled by MassHunter software (Agilent), or an AB12000 mass spectrometer coupled with an Agilent 1100 HPLC and a CTC PAL chilled autosampler, all controlled by Analyst software (ABI). After separation on a C18 reverse phase HPLC column (Agilent, Waters, or equivalent) using an acetonitrile-water gradient system, peaks were analyzed by mass spectrometry (MS) using ESI ionization in MRM (Multiple Reaction Monitoring) mode.
4 mice per condition were injected i.p. (100 mg/kg), following the same experimental paradigm performed for the tissue analysis (two doses m a 5 days time).

[3] = system: oligodendrocyte precursors; assay: Oligodendrocyte precursor maturation after pre-incubation with PI3K, mTOR or Akt inhibitors (MBP immunostaining); type: cell-based; conditions: 48 h treatment; for effect of Akt inhibitor on compound-induced differentiation: Akt 1/2 inhibitor 1 μM added 1 hr before; for effect of PI3K inhibition on compound-induced oligodendrocyte precursor maturation: wortmannin 0.1 μM added 1 hr before
Procedure: Akt signaling has been extensively studied, and activation of phosphatidyl-inositol-3-kinase (PI3K) is generally accepted as a canonical upstream Akt activator. Downstream targets of Akt have also been identified and those include GSK, mTOR, p70SK, ASK amongst many others. In order to determine the relevance of […], signaling in the phosphorylation of Akt induced by compounds A and B and possible downstream targets of phosphorylated Akt, we pre-incubated the cells with inhibitors of PI3K (wortmannin, 0.1 μM), mTOR (rapamycin 0.1 μM) or a direct Akt ½ inhibitor (trifluoroacetate salt hydrate, 1 μM), all added 1 hr before the treatment with compounds A or B.
Cells were immunostained for MBP and after 48 h treatment with compound A or B the cells underwent morphology changes indicative of cell differentiation that included the generation of multiple cell processes and development of membranous structures.

[4] = system: oligodendrocyte progenitors; assay: BrdU incorporation, proliferation of oligodendrocyte progenitors; type: cell-based, mouse; conditions: 10 nM, 48 h; Average±SEM; control 26.3±3.2; not statistically significant
Procedure: A feasible effect of small molecules on oligodendrocyte progenitor cells is the induction of proliferation. We studied this possibility by treating cultures of oligodendrocyte progenitors, previously exposed to compounds A, A-7 and B (10 nM, 48 h) with BrdU (Bromodeoxyuridine, 10 μM added 24 hrs before the end of the treatment) and posterior immunostaining to detect BrdU positive cells. This is a well established method to determine cell division and proliferation by incorporation of the […]. After counting BrdU positive oligodendrocytes versus total cells in three independent experiments we observed a slight tendency of increased proliferation in cells treated with compounds A, A-7 or B. However, there were not statistically significant differences between treated and control cells (control: 26.3±3.2; compound A: 29.2±4.0; compound A-7: 28,9±2.1; compound B: 27.6±6.7; Values are represented as Average±SEM).

Solubility = type: physicochemical
Hydrophobicity = type: physicochemical

Biological sample concentration (nM), Plasma ([2]; Sample No. 3)	SMILES	Akt phosphorylation (Akt)	number of oligodendrocyte progenitor cells and fluorescence intensity in embryos [1]	blood plasma level, average [2]	brain level, average [2]	Biological sample concentration (nM), Brain ([2]; Sample No. 1)	Biological sample concentration (nM), Plasma ([2]; Sample No. 1)	Biological sample concentration (nM), Brain ([2]; Sample No. 2)	Biological sample concentration (nM), Plasma ([2]; Sample No. 2)	Biological sample concentration (nM), Brain ([2]; Sample No. 3)	Biological sample concentration (nM), Brain ([2]; Sample No. 4)	Biological sample concentration (nM), Plasma ([2]; Sample No. 4)	crossing of the blood brain barrier [2]	effect of Akt inhibitor on compound-induced differentiation [3]	effect of PI3K inhibition on compound-induced oligodendrocyte precursor maturation [3]	BrdU positive oligodendrocytes versus total cells [4]	effect of mTOR inhibition on compound-induced oligodendrocyte precursor maturation ([3]; rapamycin 0.1 μM added 1 hr before)	solubility (Solubility)	hydrophobicity (Hydrophobicity)
129 nM	CCS(=O)(=O)N1CCN(C(=O)COc2ccc(-c3ccccc3)cc2)CC1 [Compound A, 1-[(4-biphenylyloxy)acetyl]-4-(ethylsulfonyl)piperazine]	clearly detected	clear increase; also recorded: increased accumulation of oligodendrocytes and enhanced differentiation	131.3 nM	9.2 nM	4.6 nM	90 nM	14.7 nM	149 nM	13.2 nM	4.3 nM	157 nM	effectively crossed the blood brain barrier	completely blocked	did not block	29.2±4.0			
	O=[N+]([O-])c1ccc(F)c(NS(=O)(=O)c2ccc(F)cc2)c1 [Compound B, 4-fluoro-N-(2-fluoro-5-nitrophenyl)benzenesulfonamide]	clearly detected												completely blocked	did not block	27.6±6.7	totally avoided		
	CC(C)N1CCN(C(=O)COc2ccc(-c3ccccc3)cc2)CC1 [Compound A-7, 1-(Biphenyl-4-yloxy)acetyl-4-isopropylpiperazine]		clear increase; also recorded: increased accumulation of oligodendrocytes and enhanced differentiation	9.2 nM	13.5 nM	16.6 nM	4.2 nM	16.8 nM	5.3 L nM	4.21 nM	6.2 nM	3.6 nM	effectively crossed the blood brain barrier					high	high
